Measured values reported in US8377884B2, “Variants of C-type natriuretic peptides” (Biomarin Pharmaceutical Inc., priority 2007, dated 2013).
Read-outs that look alike come from different tables or passages of the source. Bridge positions count the residues as written; N and C are the ends. Peptide text beside a SMILES is read from it.

Biological target: T1, NPR-B (Mus musculus, UniProt Q6VVW5)
T1 construct: Murine NIH3T3 cells express endogenously the CNP signaling receptor, NPR-B; endogenous in cells; host or cells: NIH3T3 (murine fibroblasts)
T1 sequence (Q6VVW5 17-1047): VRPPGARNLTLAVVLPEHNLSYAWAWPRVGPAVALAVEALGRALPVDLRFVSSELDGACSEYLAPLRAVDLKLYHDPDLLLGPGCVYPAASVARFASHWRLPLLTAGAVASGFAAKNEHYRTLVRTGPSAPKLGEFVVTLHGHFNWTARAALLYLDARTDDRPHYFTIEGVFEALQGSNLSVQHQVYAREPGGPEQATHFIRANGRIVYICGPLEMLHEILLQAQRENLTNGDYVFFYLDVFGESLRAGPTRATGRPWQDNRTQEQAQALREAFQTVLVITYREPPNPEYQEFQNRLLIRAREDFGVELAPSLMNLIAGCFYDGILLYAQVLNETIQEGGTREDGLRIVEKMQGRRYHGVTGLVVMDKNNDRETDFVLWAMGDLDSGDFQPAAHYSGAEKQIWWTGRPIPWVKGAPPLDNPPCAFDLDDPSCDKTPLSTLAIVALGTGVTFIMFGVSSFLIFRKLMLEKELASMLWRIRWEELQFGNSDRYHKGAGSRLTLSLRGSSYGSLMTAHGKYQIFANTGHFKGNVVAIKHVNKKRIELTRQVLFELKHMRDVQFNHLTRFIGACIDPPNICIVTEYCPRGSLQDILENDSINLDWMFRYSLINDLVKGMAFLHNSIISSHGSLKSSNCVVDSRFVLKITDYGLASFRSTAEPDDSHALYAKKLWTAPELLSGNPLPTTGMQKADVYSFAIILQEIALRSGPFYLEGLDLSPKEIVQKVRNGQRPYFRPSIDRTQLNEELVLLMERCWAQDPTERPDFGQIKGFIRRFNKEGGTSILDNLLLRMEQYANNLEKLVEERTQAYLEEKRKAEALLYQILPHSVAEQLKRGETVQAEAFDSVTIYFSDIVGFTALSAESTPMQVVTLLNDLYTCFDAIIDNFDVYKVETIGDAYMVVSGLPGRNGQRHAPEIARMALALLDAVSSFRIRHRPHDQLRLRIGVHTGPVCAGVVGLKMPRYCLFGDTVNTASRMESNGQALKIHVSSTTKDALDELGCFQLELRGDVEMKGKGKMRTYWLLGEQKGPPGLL
Test: Stimulation of cGMP production in NIH3T3 cells
Format: cell-based, Murine
Conditions: for cGMP response relative to 1 uM CNP22 (%) at 0.01 µM: read-out: cGMP Response rel. to 1 uM CNP22, 10 nM; for cGMP response relative to 1 uM CNP22 (%) at 1 µM: read-out: cGMP Response rel. to 1 uM CNP22, 1 uM

[1] = NIH3T3 cells, 10 nM natriuretic peptide, normalized to cell number and cGMP production with 1 uM wtCNP22
[2] = NIH3T3 cells, 1 uM natriuretic peptide, normalized to cell number and cGMP production with 1 uM wtCNP22

SMILES	cGMP response relative to 1 uM CNP22 (%) at 0.01 µM [1]	cGMP response relative to 1 uM CNP22 (%) at 1 µM [2]	cGMP response relative to 1 uM CNP22 (%) at 0.01 µM (NIH3T3, […])	cGMP response relative to 1 uM CNP22 (%) at 1 µM (NIH3T3, […])
CC[C@H](C)[C@@H]1NC(=O)[C@H](CCCNC(=N)N)NC(=O)[C@H](CC(=O)O)NC(=O)[C@H](CC(C)C)NC(=O)[C@H](CCCNC(=N)N)NC(=O)[C@H](CC(C)C)NC(=O)CNC(=O)[C@H](Cc2ccccc2)NC(=O)[C@@H](NC(=O)CNC(=O)[C@H](CCCNC(=N)N)NC(=O)[C@H](CO)NC(=O)[C@H](CC(C)C)NC(=O)CN)CSSC[C@@H](C(=O)O)NC(=O)CNC(=O)[C@H](CC(C)C)NC(=O)CNC(=O)[C@H](CO)NC(=O)[C@H](CCSC)NC(=O)[C@H](CO)NC(=O)CNC1=O [BH] (H-GLSRGCFGLRLDRIGSMSGLGC-OH; disulfide 6-22)	12%	80%		
CC[C@H](C)[C@@H]1NC(=O)[C@H](CCCNC(=N)N)NC(=O)[C@H](CC(=O)O)NC(=O)[C@H](CC(C)C)NC(=O)[C@H](CCCCN)NC(=O)[C@H](CC(C)C)NC(=O)CNC(=O)[C@H](Cc2ccccc2)NC(=O)[C@@H](NC(=O)CNC(=O)[C@H](CCCNC(=N)N)NC(=O)[C@H](CO)NC(=O)[C@H](CC(C)C)NC(=O)CNC(=O)[C@H](CCC(N)=O)NC(=O)[C@H](CCC(N)=O)NC(=O)[C@H](CC(N)=O)NC(=O)[C@H](C)NC(=O)CNC(=O)[C@H](CO)NC(=O)[C@H](CCC(N)=O)NC(=O)[C@@H](NC(=O)CNC(=O)[C@H](CO)NC(=O)[C@H](CO)NC(=O)[C@H](Cc2c[nH]cn2)NC(=O)[C@@H](NC(=O)[C@H](CCC(N)=O)NC(=O)CN)[C@@H](C)O)[C@@H](C)O)CSSC[C@@H](C(=O)O)NC(=O)CNC(=O)[C@H](CC(C)C)NC(=O)CNC(=O)[C@H](CO)NC(=O)[C@H](CCSC)NC(=O)[C@H](CO)NC(=O)CNC1=O [CN] (H-GQTHSSGTQSGANQQGLSRGCFGLKLDRIGSMSGLGC-OH; disulfide 21-37)	12%	115%		
CC[C@H](C)[C@@H]1NC(=O)[C@H](CCCNC(=N)N)NC(=O)[C@H](CC(=O)O)NC(=O)[C@H](CC(C)C)NC(=O)[C@H](CCCCN)NC(=O)[C@H](CC(C)C)NC(=O)CNC(=O)[C@H](Cc2ccccc2)NC(=O)[C@@H](NC(=O)CNC(=O)[C@H](CCCCN)NC(=O)[C@H](CO)NC(=O)[C@H](CC(C)C)NC(=O)CNC(=O)[C@H](CCC(N)=O)NC(=O)[C@H](CCC(N)=O)NC(=O)[C@H](CC(N)=O)NC(=O)[C@H](C)NC(=O)CNC(=O)[C@H](Cc2c[nH]cn2)NC(=O)[C@@H]2CCCN2C(=O)[C@H](Cc2c[nH]cn2)NC(=O)[C@H](CCC(N)=O)NC(=O)[C@H](CCC(=O)O)NC(=O)[C@H](Cc2c[nH]cn2)NC(=O)[C@H](CO)NC(=O)[C@H](Cc2c[nH]cn2)NC(=O)[C@H](Cc2c[nH]cn2)NC(=O)CN)CSSC[C@@H](C(=O)O)NC(=O)CNC(=O)[C@H](CC(C)C)NC(=O)CNC(=O)[C@H](CO)NC(=O)[C@H](CCSC)NC(=O)[C@H](CO)NC(=O)CNC1=O [CQ] (H-GHHSHEQHPHGANQQGLSKGCFGLKLDRIGSMSGLGC-OH; disulfide 21-37 (inferred); N-terminus and C-terminus assumed)			16%	95%
CC[C@H](C)[C@@H]1NC(=O)[C@H](CCCNC(=N)N)NC(=O)[C@H](CC(=O)O)NC(=O)[C@H](CC(C)C)NC(=O)[C@H](CCCCN)NC(=O)[C@H](CC(C)C)NC(=O)CNC(=O)[C@H](Cc2ccccc2)NC(=O)[C@@H](NC(=O)CNC(=O)[C@H](CCCCN)NC(=O)[C@H](CO)NC(=O)[C@H](CC(C)C)NC(=O)CNC(=O)[C@H](CCC(N)=O)NC(=O)[C@H](CCC(N)=O)NC(=O)[C@H](CC(N)=O)NC(=O)[C@H](C)NC(=O)CNC(=O)[C@H](Cc2c[nH]cn2)NC(=O)[C@@H](NC(=O)[C@H](CC(=O)O)NC(=O)[C@H](Cc2c[nH]cn2)NC(=O)[C@H](CCC(=O)O)NC(=O)[C@H](Cc2c[nH]cn2)NC(=O)[C@@H]2CCCN2C(=O)[C@H](Cc2c[nH]cn2)NC(=O)[C@H](Cc2c[nH]cn2)NC(=O)[C@H](C)NC(=O)CN)[C@@H](C)O)CSSC[C@@H](C(=O)O)NC(=O)CNC(=O)[C@H](CC(C)C)NC(=O)CNC(=O)[C@H](CO)NC(=O)[C@H](CCSC)NC(=O)[C@H](CO)NC(=O)CNC1=O [CR] (H-GAHHPHEHDTHGANQQGLSKGCFGLKLDRIGSMSGLGC-OH; disulfide 22-38 (inferred); N-terminus and C-terminus assumed)			14 ± 5%	77 ± 12%
CC[C@H](C)[C@@H]1NC(=O)[C@H](CCCNC(=N)N)NC(=O)[C@H](CC(=O)O)NC(=O)[C@H](CC(C)C)NC(=O)[C@H](CCCCN)NC(=O)[C@H](CC(C)C)NC(=O)CNC(=O)[C@H](Cc2ccccc2)NC(=O)[C@@H](NC(=O)CNC(=O)[C@H](CCCCN)NC(=O)[C@H](CO)NC(=O)[C@H](CC(C)C)NC(=O)CNC(=O)[C@H](CCCCN)NC(=O)[C@H](CCC(N)=O)NC(=O)[C@H](CC(N)=O)NC(=O)[C@H](C)NC(=O)CNC(=O)[C@H](CCCCN)NC(=O)[C@H](Cc2ccc(O)cc2)NC(=O)[C@H](CCCCN)NC(=O)[C@H](CCCNC(=N)N)NC(=O)[C@H](C)NC(=O)[C@H](CC(N)=O)NC(=O)[C@@H]2CCCN2C(=O)[C@H](Cc2c[nH]cn2)NC(=O)[C@H](CCC(=O)O)NC(=O)[C@H](CCC(N)=O)NC(=O)CN)CSSC[C@@H](C(=O)O)NC(=O)CNC(=O)[C@H](CC(C)C)NC(=O)CNC(=O)[C@H](CO)NC(=O)[C@H](CCSC)NC(=O)[C@H](CO)NC(=O)CNC1=O [CT] (H-GQEHPNARKYKGANQKGLSKGCFGLKLDRIGSMSGLGC-OH; disulfide 22-38 (inferred); N-terminus and C-terminus assumed)	60%	121%		

Now from value to compound, other results behind:

cGMP response relative to 1 uM CNP22 (%) at 0.01 µM [1]	cGMP response relative to 1 uM CNP22 (%) at 1 µM [2]	SMILES	cGMP response relative to 1 uM CNP22 (%) at 0.01 µM (NIH3T3, […])	cGMP response relative to 1 uM CNP22 (%) at 1 µM (NIH3T3, […])
44 ± 8%	95 ± 11%	CC[C@H](C)[C@@H]1NC(=O)[C@H](CCCNC(=N)N)NC(=O)[C@H](CC(=O)O)NC(=O)[C@H](CC(C)C)NC(=O)[C@H](CCCCN)NC(=O)[C@H](CC(C)C)NC(=O)CNC(=O)[C@H](Cc2ccccc2)NC(=O)[C@@H](NC(=O)CNC(=O)[C@H](CCCNC(=N)N)NC(=O)[C@H](CO)NC(=O)[C@H](CC(C)C)NC(=O)CNC(=O)[C@H](CCC(N)=O)NC(=O)[C@H](CCC(N)=O)NC(=O)[C@H](CC(N)=O)NC(=O)[C@H](C)NC(=O)CN)CSSC[C@@H](C(=O)O)NC(=O)CNC(=O)[C@H](CC(C)C)NC(=O)CNC(=O)[C@H](CO)NC(=O)[C@H](CCSC)NC(=O)[C@H](CO)NC(=O)CNC1=O [CH] (H-GANQQGLSRGCFGLKLDRIGSMSGLGC-OH; disulfide 11-27 (inferred); N-terminus and C-terminus assumed)		
50 ± 1%	105 ± 12%	CC[C@H](C)[C@@H]1NC(=O)[C@H](CCCNC(=N)N)NC(=O)[C@H](CC(=O)O)NC(=O)[C@H](CC(C)C)NC(=O)[C@H](CCCCN)NC(=O)[C@H](CC(C)C)NC(=O)CNC(=O)[C@H](Cc2ccccc2)NC(=O)[C@@H](NC(=O)CNC(=O)[C@H](CCCNC(=N)N)NC(=O)[C@H](CO)NC(=O)[C@H](CC(C)C)NC(=O)CNC(=O)[C@H](CCCNC(=N)N)NC(=O)[C@@H]2CCCN2C(=O)[C@H](CC(N)=O)NC(=O)[C@H](C)NC(=O)CN)CSSC[C@@H](C(=O)O)NC(=O)CNC(=O)[C@H](CC(C)C)NC(=O)CNC(=O)[C@H](CO)NC(=O)[C@H](CCSC)NC(=O)[C@H](CO)NC(=O)CNC1=O [CI] (H-GANPRGLSRGCFGLKLDRIGSMSGLGC-OH; disulfide 11-27 (inferred); N-terminus and C-terminus assumed)		
